# Test results as given in patent publication US20230085307A1, “PYRIDAZINONE COMPOUND AND HERBICIDE” (NISSAN CHEMICAL CORPORATION, priority 2019, published 2023).
# Assays:
# barnyard grass [1] = test: Test Example 3: herbicidal effect by foliage application, Wagner pot (Table 18, symbol H); type: in vivo, barnyard grass (Echinochloa crus-galli); conditions: for herbicidal effect on H (barnyard grass), rating 0-5: 320 g/ha
# Method in brief: (§1)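 Plants were sown in alluvial soil held under 0.1–0.5 cm standing water and grown 14 days in a greenhouse at 25–30 °C. An emulsifiable formulation, water-diluted to the set dose, was then sprayed onto the foliage, and effects were scored three weeks later using previously defined criteria.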
# late watergrass = test: Test Example 2: herbicidal activity, application during weed generation under submerged conditions (Table 17, symbol A); type: in vivo, late watergrass (Echinochloa oryzicola); conditions: AAH 320 g/ha; application during weed generation, submerged conditions
# Method in brief: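 Mixed weed seedlings in alluvial soil under a 4 cm water layer, greenhouse-grown at 25–30° C. Compound given as a diluted emulsion into the floodwater at the 1–2 leaf stage; response graded after three weeks.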
# windgrass = test: Test Example 4: herbicidal effect by soil treatment (Table 19, symbol L); type: in vivo, windgrass (Apera spica-venti)
# Method in brief: (§2)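 Seeds were sown in sterilized diluvial soil and covered with about 1.5 cm of soil. An emulsion formulation diluted with water to a predetermined herbicide amount was sprayed evenly onto the soil surface. Plants grew in a greenhouse at 25° C. to 30° C., and the effect was scored three weeks after application using criteria from an earlier test.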
# redroot pigweed = test: Test Example 5: herbicidal effect by foliage application, plastic box (Table 20, symbol N); type: in vivo, redroot pigweed (Amaranthus retroflexus); conditions: foliage application
# Method in brief: (§3)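 Plants sown in sterilized diluvial soil and grown 14 days in a greenhouse at 25° C to 30° C, then sprayed on the foliage with the compound's emulsion diluted in water to a predetermined herbicide amount. Injury to weeds and crops scored three weeks after application on a visual rating scale.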
# blackgrass = test: Test Example 5: herbicidal effect by foliage application, plastic box (Table 20, symbol J); type: in vivo, blackgrass (Alopecurus myosuroides); conditions: foliage application
# Method in brief: as §3
# lambsquarters [2] = test: Test Example 4: herbicidal effect by soil treatment (Table 19, symbol O); type: in vivo, lambsquarters (Chenopodium album)
# Method in brief: as §2
# barnyard grass [3] = test: Test Example 4: herbicidal effect by soil treatment (Table 19, symbol H); type: in vivo, barnyard grass (Echinochloa crus-galli)
# Method in brief: as §2
# barnyard grass [4] = test: Test Example 5: herbicidal effect by foliage application, plastic box (Table 20, symbol H); type: in vivo, barnyard grass (Echinochloa crus-galli); conditions: foliage application
# Method in brief: as §3
# velvetleaf [5] = test: Test Example 4: herbicidal effect by soil treatment (Table 19, symbol M); type: in vivo, velvetleaf (Abutilon theophrasti)
# Method in brief: as §2
# persian speedwell = test: Test Example 4: herbicidal effect by soil treatment (Table 19, symbol R); type: in vivo, Persian speedwell (Veronica persica)
# Method in brief: as §2
# Chinese sprangletop = test: Test Example 3: herbicidal effect by foliage application, Wagner pot (Table 18, symbol D); type: in vivo, chinese sprangletop (Leptochloa chinensis); conditions: for herbicidal effect on D (Chinese sprangletop), rating 0-5: 320 g/ha
# Method in brief: as §1
# lambsquarters [6] = test: Test Example 5: herbicidal effect by foliage application, plastic box (Table 20, symbol O); type: in vivo, lambsquarters (Chenopodium album); conditions: foliage application
# Method in brief: as §3
# velvetleaf [7] = test: Test Example 5: herbicidal effect by foliage application, plastic box (Table 20, symbol M); type: in vivo, velvetleaf (Abutilon theophrasti); conditions: foliage application
# Method in brief: as §3
# oval-leafed pondweed = test: Test Example 1: herbicidal activity, application before weed generation under submerged conditions (Table 16, symbol C); type: in vivo, oval-leafed pondweed (Monochoria vaginalis); conditions: 320 g/ha applied herbicide
# Method in brief: (§4)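 Alluvial soil was flooded to 4 cm depth, weed seeds were sown mixed and 2.5-leaf rice seedlings were transplanted. On sowing day, the compound's emulsion, diluted in water to a set dose, was applied to the water surface. Plants grew at 25–30 °C and were scored 0–5 after three weeks.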
# Italian ryegrass = test: Test Example 5: herbicidal effect by foliage application, plastic box (Table 20, symbol K); type: in vivo, Italian ryegrass (Lolium multiflorum); conditions: foliage application
# Method in brief: as §3
# Japanese bulrush = test: Test Example 1: herbicidal activity, application before weed generation under submerged conditions (Table 16, symbol B); type: in vivo, Japanese bulrush (Schoenoplectus juncoides); conditions: 320 g/ha applied herbicide
# Method in brief: as §4
# [8] = 320 g/ha, evaluated three weeks after application
# [9] = amount of applied herbicide 320 g/ha
# [10] = AAH 320 g/ha, evaluated three weeks after application
# [11] = 320 g/ha, three weeks after application
Structure (SMILES),"herbicidal effect on H (barnyard grass), rating 0-5 (barnyard grass [1])","herbicidal effect rating, A: late watergrass (late watergrass)","herbicidal effect rating, L: windgrass (windgrass; 320 g/ha)",herbicidal effect on N: redroot pigweed (redroot pigweed; [8]),herbicidal effect on J: blackgrass (blackgrass; [8]),"herbicidal effect rating, O: lambsquarters (lambsquarters [2]; 320 g/ha)","herbicidal effect rating, H: barnyard grass (barnyard grass [3]; 320 g/ha)",herbicidal effect on H: barnyard grass (barnyard grass [4]; [8]),"herbicidal effect rating, M: velvetleaf (velvetleaf [5]; 320 g/ha)","herbicidal effect rating, R: persian speedwell (persian speedwell; 320 g/ha)","herbicidal effect on D (Chinese sprangletop), rating 0-5 (Chinese sprangletop)",herbicidal effect on O: lambsquarters (lambsquarters [6]; [8]),herbicidal effect on M: velvetleaf (velvetleaf [7]; [8]),Herbicidal effect on C: oval-leafed pondweed (grade 0-5) (oval-leafed pondweed),herbicidal effect on K: Italian ryegrass (Italian ryegrass; [8]),Herbicidal effect on B: Japanese bulrush (grade 0-5) (Japanese bulrush),other results
CCCC(=O)Oc1c(C)nn(C)c(=O)c1-c1c(-c2ccc3c(c2)OCO3)sc2ccc(F)cc12 [2-091],3 (Herbicidal rate of 40% or more and less than 70%),0 (Herbicidal rate of 5% or less (almost no effect)),0 (Herbicidal rate of 5% or less (almost no effect)),3 (Herbicidal rate of 40% or more and less than 70%),3 (Herbicidal rate of 40% or more and less than 70%),5 (Herbicidal rate of 90% or more (almost completely withered)),2 (Herbicidal rate of 20% or more and less than 40%),3 (Herbicidal rate of 40% or more and less than 70%),5 (Herbicidal rate of 90% or more (almost completely withered)),4 (Herbicidal rate of 70% or more and less than 90%),3 (Herbicidal rate of 40% or more and less than 70%),5 (Herbicidal rate of 90% or more (almost completely withered)),5 (Herbicidal rate of 90% or more (almost completely withered)),5 (Herbicidal rate of 90% or more (almost completely withered)),4 (Herbicidal rate of 70% or more and less than 90%),4 (Herbicidal rate of 70% or more and less than 90%),–
Cc1nn(C)c(=O)c(-c2c(-c3ccc(OCc4ccccc4)cc3)sc3ccc(F)cc23)c1O [2-062],5 (Herbicidal rate of 90% or more (almost completely withered)),0 (Herbicidal rate of 5% or less (almost no effect)),0 (Herbicidal rate of 5% or less (almost no effect)),5 (Herbicidal rate of 90% or more (almost completely withered)),1 (Herbicidal rate of 5% or more and less than 20%),3 (Herbicidal rate of 40% or more and less than 70%),0 (Herbicidal rate of 5% or less (almost no effect)),5 (Herbicidal rate of 90% or more (almost completely withered)),1 (Herbicidal rate of 5% or more and less than 20%),3 (Herbicidal rate of 40% or more and less than 70%),5 (Herbicidal rate of 90% or more (almost completely withered)),5 (Herbicidal rate of 90% or more (almost completely withered)),3 (Herbicidal rate of 40% or more and less than 70%),3 (Herbicidal rate of 40% or more and less than 70%),1 (Herbicidal rate of 5% or more and less than 20%),4 (Herbicidal rate of 70% or more and less than 90%),–
CCCC(=O)Oc1c(C)nn(C)c(=O)c1-c1c(-c2ccc(F)c(F)c2)sc2ccc(F)cc12 [2-345],–,5 (Herbicidal rate of 90% or more (almost completely withered)),–,–,–,–,–,–,–,–,–,–,–,3 (Herbicidal rate of 40% or more and less than 70%),–,4 (Herbicidal rate of 70% or more and less than 90%),"herbicidal effect on H: barnyard grass (barnyard grass [1]; [9]): 5 (Herbicidal rate of 90% or more (almost completely withered)); herbicidal effect on L: windgrass (windgrass; [9]): 0 (Herbicidal rate of 5% or less (almost no effect)); N: redroot pigweed, herbicidal effect (criteria 0-5) (redroot pigweed; [10]): 5 (Herbicidal rate of 90% or more (almost completely withered)); J: blackgrass, herbicidal effect (criteria 0-5) (blackgrass; [10]): 0 (Herbicidal rate of 5% or less (almost no effect)); herbicidal effect on O: lambsquarters (lambsquarters [2]; [9]): 4 (Herbicidal rate of 70% or more and less than 90%); herbicidal effect on H: barnyard grass (barnyard grass [3]; [9]): 4 (Herbicidal rate of 70% or more and less than 90%); H: barnyard grass, herbicidal effect (criteria 0-5) (barnyard grass [4]; [10]): 5 (Herbicidal rate of 90% or more (almost completely withered)); herbicidal effect on M: velvetleaf (velvetleaf [5]; [9]): 3 (Herbicidal rate of 40% or more and less than 70%); herbicidal effect on R: persian speedwell (persian speedwell; [9]): 5 (Herbicidal rate of 90% or more (almost completely withered)); herbicidal effect on D: Chinese sprangletop (Chinese sprangletop; [9]): 5 (Herbicidal rate of 90% or more (almost completely withered)); O: lambsquarters, herbicidal effect (criteria 0-5) (lambsquarters [6]; [10]): 5 (Herbicidal rate of 90% or more (almost completely withered)); M: velvetleaf, herbicidal effect (criteria 0-5) (velvetleaf [7]; [10]): 5 (Herbicidal rate of 90% or more (almost completely withered)); K: Italian ryegrass, herbicidal effect (criteria 0-5) (Italian ryegrass; [10]): 3 (Herbicidal rate of 40% or more and less than 70%)"
CCCC(=O)Oc1c(C)nn(C)c(=O)c1-c1c(-c2ccc(Cl)cc2)sc2ccc(Cl)cc12 [2-100],5 (Herbicidal rate of 90% or more (almost completely withered)),3 (Herbicidal rate of 40% or more and less than 70%),–,5 (Herbicidal rate of 90% or more (almost completely withered)),4 (Herbicidal rate of 70% or more and less than 90%),–,–,5 (Herbicidal rate of 90% or more (almost completely withered)),–,–,4 (Herbicidal rate of 70% or more and less than 90%),4 (Herbicidal rate of 70% or more and less than 90%),5 (Herbicidal rate of 90% or more (almost completely withered)),2 (Herbicidal rate of 20% or more and less than 40%),5 (Herbicidal rate of 90% or more (almost completely withered)),3 (Herbicidal rate of 40% or more and less than 70%),"L: windgrass, herbicidal effect rating (windgrass; [9]): 3 (Herbicidal rate of 40% or more and less than 70%); O: lambsquarters, herbicidal effect rating (lambsquarters [2]; [9]): 2 (Herbicidal rate of 20% or more and less than 40%); H: barnyard grass, herbicidal effect rating (barnyard grass [3]; [9]): 0 (Herbicidal rate of 5% or less (almost no effect)); M: velvetleaf, herbicidal effect rating (velvetleaf [5]; [9]): 0 (Herbicidal rate of 5% or less (almost no effect)); R: persian speedwell, herbicidal effect rating (persian speedwell; [9]): 1 (Herbicidal rate of 5% or more and less than 20%)"
CCCCOc1ccc(-c2sc3ccccc3c2-c2c(OC(=O)CCC)c(C)nn(C)c2=O)cc1 [1-025],5 (Herbicidal rate of 90% or more (almost completely withered)),0 (Herbicidal rate of 5% or less (almost no effect)),–,–,–,–,–,–,–,–,4 (Herbicidal rate of 70% or more and less than 90%),–,–,4 (Herbicidal rate of 70% or more and less than 90%),–,5 (Herbicidal rate of 90% or more (almost completely withered)),"herbicidal effect rating, L: windgrass (windgrass; [9]): 0 (Herbicidal rate of 5% or less (almost no effect)); herbicidal effect grade, N: redroot pigweed (redroot pigweed; [11]): 5 (Herbicidal rate of 90% or more (almost completely withered)); herbicidal effect grade, J: blackgrass (blackgrass; [11]): 0 (Herbicidal rate of 5% or less (almost no effect)); herbicidal effect rating, O: lambsquarters (lambsquarters [2]; [9]): 2 (Herbicidal rate of 20% or more and less than 40%); herbicidal effect rating, H: barnyard grass (barnyard grass [3]; [9]): 0 (Herbicidal rate of 5% or less (almost no effect)); herbicidal effect grade, H: barnyard grass (barnyard grass [4]; [11]): 4 (Herbicidal rate of 70% or more and less than 90%); herbicidal effect rating, M: velvetleaf (velvetleaf [5]; [9]): 0 (Herbicidal rate of 5% or less (almost no effect)); herbicidal effect rating, R: persian speedwell (persian speedwell; [9]): 3 (Herbicidal rate of 40% or more and less than 70%); herbicidal effect grade, O: lambsquarters (lambsquarters [6]; [11]): 4 (Herbicidal rate of 70% or more and less than 90%); herbicidal effect grade, M: velvetleaf (velvetleaf [7]; [11]): 5 (Herbicidal rate of 90% or more (almost completely withered)); herbicidal effect grade, K: Italian ryegrass (Italian ryegrass; [11]): 1 (Herbicidal rate of 5% or more and less than 20%)"
